Results: patent publication US8835377B2, “Oral delivery of peptide pharmaceutical compositions” (UGP Therapeutics, Inc., priority 2004, dated 2014)

Assay: Pharmacokinetics after oral capsules (sCT plus Dmt-DALDA with citric acid and lauroyl carnitine), non-enteric coated or enteric coated, in fasted beagle dogs (plasma; ELISA for sCT, HPLC-MS for Dmt-DALDA)
Format: in vivo
Protocol: A second series of tests was carried out, as noted above, using beagle dogs. […] In the experiments represented in FIGS. 2A and 2B, size 00 […] capsules were each filled with 758 mg of a powdered blend consisting of citric acid (643 mg), lauroyl carnitine (66 mg), talc (33 mg), salmon calcitonin (sCT) (13 mg) and Dmt-DALDA (2.4 mg). Half of the capsules were coated with an enteric coating solution of L30D-55, while the remaining 50% of the capsules were not coated. Four fasted dogs were each given 1 uncoated capsule, and 2 weeks later they were each given an enteric coated capsule. After administration of each capsule, samples of blood were taken at 15 minute intervals from an indwelling catheter for up to 4 hours. The blood samples were centrifuged and the resulting plasma supernatants were stored frozen at −20° C. The plasma samples were subsequently analyzed for sCT by a direct ELISA, and for Dmt-DALDA by HPLC-mass spectrometry performed as set forth in Wan, H. and Desiderio, D., Quantitation of [DMT^1] DALDA in ovine plasma by on-line liquid chromatography/quadrapole time-of-flight mass spectrometry, Rapid Communications in Mass Spectrometry, 2003; 17, 538-546, the contents of which are incorporated herein by reference.
The results summarized in FIGS. 2A and 2B as plasma peptide concentration normalized to a 1 mg dose as a function of time relative to the average Tmax, (i.e., the time at which the maximum amount of peptide was detected) indicate that both peptides, i.e., sCT and Dmt-DALDA, were detected in dogs given uncoated or enteric coated capsules. […] Table DI (below) sets forth the values upon which the curves in FIGS. 2A and 2B are based. The results are summarized in the tables as plasma peptide concentration normalized to a 1 mg dose as a function of time. Table III, moreover, provides the standard deviations for the data obtained regarding each of the test dogs, which standard deviations are also indicated in FIGS. 2A and 2B.
Table IV (below) summarizes the pharmacokinetic parameters in dogs of orally administered sCT and Dmt-DALDA when administered in non-enteric coated versus enteric coated capsules. Peptide was not detected from 1 dog in each group due to (a) Dog 3 vomiting the uncoated capsule and (b) delayed gastric emptying in Dog 2 provided with an enteric coated capsule. Cmax and AUC are as defined with regard to Table H above.

SMILES: Cc1cc(O)cc(C)c1C[C@H](N)C(=O)N[C@H](CCCNC(=N)N)C(=O)N[C@@H](Cc1ccccc1)C(=O)N[C@@H](CCCCN)C(N)=O [Dmt-DALDA, H-2,6-dimethyltyrosine-D-Arginine-Phenylalanine-Lysine-NH2]
- plasma peptide concentration normalized to a 1 mg dose (enteric coated capsule, Dog 3, 45 min): 0 pg/mL
- plasma peptide concentration normalized to a 1 mg dose (enteric coated capsule, Dog 3, 60 min): 0 pg/mL
- plasma peptide concentration normalized to a 1 mg dose (enteric coated capsule, Dog 3, 75 min): 0 pg/mL
- plasma peptide concentration normalized to a 1 mg dose (enteric coated capsule, Dog 3, 90 min): 0 pg/mL
- plasma peptide concentration normalized to a 1 mg dose (enteric coated capsule, Dog 3, 105 min): 0 pg/mL
- plasma peptide concentration normalized to a 1 mg dose (enteric coated capsule, Dog 3, 120 min): 0 pg/mL
- plasma peptide concentration normalized to a 1 mg dose (enteric coated capsule, Dog 3, 135 min): 21494 pg/mL
- plasma peptide concentration normalized to a 1 mg dose (enteric coated capsule, Dog 3, 150 min): 19378 pg/mL
- plasma peptide concentration normalized to a 1 mg dose (enteric coated capsule, Dog 3, 165 min): 12697 pg/mL
- plasma peptide concentration normalized to a 1 mg dose (enteric coated capsule, Dog 3, 180 min): 9100 pg/mL
- plasma peptide concentration normalized to a 1 mg dose (enteric coated capsule, Dog 3, 195 min): 4876 pg/mL
- plasma peptide concentration normalized to a 1 mg dose (enteric coated capsule, Dog 4, 0 min): 0 pg/mL
- plasma peptide concentration normalized to a 1 mg dose (enteric coated capsule, Dog 4, 15 min): 0 pg/mL
- plasma peptide concentration normalized to a 1 mg dose (enteric coated capsule, Dog 4, 30 min): 0 pg/mL
- plasma peptide concentration normalized to a 1 mg dose (enteric coated capsule, Dog 4, 45 min): 0 pg/mL
- plasma peptide concentration normalized to a 1 mg dose (enteric coated capsule, Dog 4, 60 min): 0 pg/mL
- plasma peptide concentration normalized to a 1 mg dose (enteric coated capsule, Dog 4, 75 min): 0 pg/mL
- plasma peptide concentration normalized to a 1 mg dose (enteric coated capsule, Dog 4, 90 min): 0 pg/mL
- plasma peptide concentration normalized to a 1 mg dose (enteric coated capsule, Dog 4, 105 min): 4577 pg/mL
- plasma peptide concentration normalized to a 1 mg dose (enteric coated capsule, Dog 4, 120 min): 12116 pg/mL
- plasma peptide concentration normalized to a 1 mg dose (enteric coated capsule, Dog 4, 135 min): 10207 pg/mL
- plasma peptide concentration normalized to a 1 mg dose (enteric coated capsule, Dog 4, 150 min): 6307 pg/mL
- plasma peptide concentration normalized to a 1 mg dose (enteric coated capsule, Dog 4, 165 min): 5158 pg/mL
- plasma peptide concentration normalized to a 1 mg dose (enteric coated capsule, Dog 4, 180 min): 3884 pg/mL
- plasma peptide concentration normalized to a 1 mg dose (enteric coated capsule, Dog 4, 195 min): 2896 pg/mL
- plasma peptide concentration normalized to a 1 mg dose (non-enteric coated capsule, Dog 1, 45 min): 5104 pg/mL
- plasma peptide concentration normalized to a 1 mg dose (non-enteric coated capsule, Dog 1, 60 min): 4066 pg/mL
- plasma peptide concentration normalized to a 1 mg dose (non-enteric coated capsule, Dog 1, 75 min): 2407 pg/mL
- plasma peptide concentration normalized to a 1 mg dose (non-enteric coated capsule, Dog 1, 90 min): 2780 pg/mL
- plasma peptide concentration normalized to a 1 mg dose (non-enteric coated capsule, Dog 1, 105 min): 1938 pg/mL
- plasma peptide concentration normalized to a 1 mg dose (non-enteric coated capsule, Dog 1, 120 min): 1627 pg/mL
- plasma peptide concentration normalized to a 1 mg dose (non-enteric coated capsule, Dog 1, 135 min): 1158 pg/mL
- plasma peptide concentration normalized to a 1 mg dose (non-enteric coated capsule, Dog 1, 150 min): 830 pg/mL
- plasma peptide concentration normalized to a 1 mg dose (non-enteric coated capsule, Dog 1, 165 min): 913 pg/mL
- plasma peptide concentration normalized to a 1 mg dose (non-enteric coated capsule, Dog 1, 180 min): 705 pg/mL
- plasma peptide concentration normalized to a 1 mg dose (non-enteric coated capsule, Dog 1, 195 min): 581 pg/mL
- plasma peptide concentration normalized to a 1 mg dose (non-enteric coated capsule, Dog 1, 210 min): 544 pg/mL
- plasma peptide concentration normalized to a 1 mg dose (non-enteric coated capsule, Dog 1, 225 min): 436 pg/mL
- plasma peptide concentration normalized to a 1 mg dose (non-enteric coated capsule, Dog 1, 240 min): 402 pg/mL
- plasma peptide concentration normalized to a 1 mg dose (non-enteric coated capsule, Dog 2, 45 min): 5602 pg/mL
- plasma peptide concentration normalized to a 1 mg dose (non-enteric coated capsule, Dog 2, 60 min): 5726 pg/mL
- plasma peptide concentration normalized to a 1 mg dose (non-enteric coated capsule, Dog 2, 75 min): 4523 pg/mL
- plasma peptide concentration normalized to a 1 mg dose (non-enteric coated capsule, Dog 2, 90 min): 3568 pg/mL
- plasma peptide concentration normalized to a 1 mg dose (non-enteric coated capsule, Dog 2, 105 min): 3444 pg/mL
- plasma peptide concentration normalized to a 1 mg dose (non-enteric coated capsule, Dog 2, 120 min): 2614 pg/mL
- plasma peptide concentration normalized to a 1 mg dose (non-enteric coated capsule, Dog 2, 135 min): 2697 pg/mL
- plasma peptide concentration normalized to a 1 mg dose (non-enteric coated capsule, Dog 2, 150 min): 2407 pg/mL
- plasma peptide concentration normalized to a 1 mg dose (non-enteric coated capsule, Dog 2, 165 min): 2531 pg/mL
- plasma peptide concentration normalized to a 1 mg dose (non-enteric coated capsule, Dog 2, 180 min): 2075 pg/mL
- plasma peptide concentration normalized to a 1 mg dose (non-enteric coated capsule, Dog 2, 195 min): 1328 pg/mL
- plasma peptide concentration normalized to a 1 mg dose (non-enteric coated capsule, Dog 2, 210 min): 1867 pg/mL
- plasma peptide concentration normalized to a 1 mg dose (non-enteric coated capsule, Dog 2, 225 min): 1535 pg/mL
- plasma peptide concentration normalized to a 1 mg dose (non-enteric coated capsule, Dog 2, 240 min): 1494 pg/mL
- plasma peptide concentration normalized to a 1 mg dose (non-enteric coated capsule, Dog 4, 45 min): 5788 pg/mL
- plasma peptide concentration normalized to a 1 mg dose (non-enteric coated capsule, Dog 4, 60 min): 4481 pg/mL
- plasma peptide concentration normalized to a 1 mg dose (non-enteric coated capsule, Dog 4, 75 min): 2934 pg/mL
- plasma peptide concentration normalized to a 1 mg dose (non-enteric coated capsule, Dog 4, 90 min): 2382 pg/mL
- plasma peptide concentration normalized to a 1 mg dose (non-enteric coated capsule, Dog 4, 105 min): 3054 pg/mL
- plasma peptide concentration normalized to a 1 mg dose (non-enteric coated capsule, Dog 4, 120 min): 1759 pg/mL
- plasma peptide concentration normalized to a 1 mg dose (non-enteric coated capsule, Dog 4, 135 min): 1627 pg/mL
- plasma peptide concentration normalized to a 1 mg dose (non-enteric coated capsule, Dog 4, 150 min): 1544 pg/mL
- plasma peptide concentration normalized to a 1 mg dose (non-enteric coated capsule, Dog 4, 165 min): 1324 pg/mL
- plasma peptide concentration normalized to a 1 mg dose (non-enteric coated capsule, Dog 4, 180 min): 1191 pg/mL
- plasma peptide concentration normalized to a 1 mg dose (non-enteric coated capsule, Dog 4, 195 min): 851 pg/mL
- plasma peptide concentration normalized to a 1 mg dose (non-enteric coated capsule, Dog 4, 210 min): 722 pg/mL
- plasma peptide concentration normalized to a 1 mg dose (non-enteric coated capsule, Dog 4, 225 min): 672 pg/mL
- plasma peptide concentration normalized to a 1 mg dose (non-enteric coated capsule, Dog 4, 240 min): 556 pg/mL
